These are literature values, as cited in patent publication US6743947B1, “Electrochemically stable onium salts and electrolytes containing such for electrochemical capacitors” (The United States of America as represented by the …, priority 1999, dated 2004).

Where two headings read alike, the source gives them in different places.

The conditions of series [1]: room temperature.

As for `CC[N+](CC)(CC)CC.F[B-](F)(F)F` [Et4NBF4, tetraethylammonium tetrafluoroborate], under “in acetonitrile (AN), room temperatures”, the saturated salt concentration result was “about 1.68 M”. The saturated concentration (in propylene carbonate (PC), room temperature) is recorded as 0.86 M. For the same compound, the conductivity entry in series [1] (in AN, 1.4 M) is on record as “about 50 mS/cm”; in series [1] (in PC, 0.65 M), 8.8 mS/cm.
